# Experiments:
# Cbl-b = Cbl-b (Homo sapiens (Human), UniProt Q13191); assay: Cbl-b LCK Ub TR-FRET assay (Cbl-b Lck HTRF); type: biochemical; conditions: for IC50: Cbl-b LCK Ub TR-FRET; for fold-selectivity (Cbl-b over C-cbl) / (fold-selectivity) Cbl-b and C-Cbl Selectivity: ratio C-cbl Lck HTRF IC50 / Cbl-b Lck HTRF IC50
# Summary of the method: (§1)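 After the ubiquitination reaction, detection mixture was added and plates incubated 20 min at room temperature before reading. IC50 values were calculated with wells lacking LCK as the low control and DMSO as the high control.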
# c-Cbl = c-Cbl (Homo sapiens (Human), UniProt P22681); assay: C-Cbl LCK Ub TR-FRET assay (C-cbl Lck HTRF); type: biochemical
# Summary of the method: as §1
# [1] = target: Human Cbl-b (residues 40-426) (Homo sapiens (Human), UniProt Q13191); assay: Cbl-b SPR assay; type: binding; conditions: for Fold of selectivity: C-cbl SPR Kd vs Cbl-b SPR Kd; for Kd: SPR, 20° C.
# Summary of the method: (§2)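 Binding was measured by SPR and fitted to a 1:1 model from multi-cycle kinetics with double referencing, 6 concentrations in 2-fold dilution. Alternatively, single-cycle titrations up to 500 nM (120 s contact) were fitted with kd fixed from a single-exponential fit of chaser-measured % compound bound versus time.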
# c-Cbl (residues 47-435) = c-Cbl (residues 47-435) (Homo sapiens (Human), UniProt P22681); assay: c-Cbl SPR assay; type: binding; conditions: 20° C.
# Summary of the method: as §2
# c-Cbl, sequence (P22681 47-435): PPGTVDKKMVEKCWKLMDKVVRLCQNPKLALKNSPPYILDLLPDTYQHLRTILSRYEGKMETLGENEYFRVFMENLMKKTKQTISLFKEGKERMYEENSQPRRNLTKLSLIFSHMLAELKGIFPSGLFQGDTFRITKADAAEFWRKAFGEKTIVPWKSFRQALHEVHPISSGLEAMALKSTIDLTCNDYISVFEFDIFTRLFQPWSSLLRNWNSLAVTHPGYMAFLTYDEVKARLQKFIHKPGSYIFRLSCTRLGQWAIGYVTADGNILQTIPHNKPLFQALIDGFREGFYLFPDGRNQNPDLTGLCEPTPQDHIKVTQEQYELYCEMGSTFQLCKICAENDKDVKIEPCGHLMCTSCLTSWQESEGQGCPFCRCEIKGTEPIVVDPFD
# c-Cbl (residues 47-435), sequence (P22681 47-435): as above
# Cbl-b, sequence (Q13191 40-426): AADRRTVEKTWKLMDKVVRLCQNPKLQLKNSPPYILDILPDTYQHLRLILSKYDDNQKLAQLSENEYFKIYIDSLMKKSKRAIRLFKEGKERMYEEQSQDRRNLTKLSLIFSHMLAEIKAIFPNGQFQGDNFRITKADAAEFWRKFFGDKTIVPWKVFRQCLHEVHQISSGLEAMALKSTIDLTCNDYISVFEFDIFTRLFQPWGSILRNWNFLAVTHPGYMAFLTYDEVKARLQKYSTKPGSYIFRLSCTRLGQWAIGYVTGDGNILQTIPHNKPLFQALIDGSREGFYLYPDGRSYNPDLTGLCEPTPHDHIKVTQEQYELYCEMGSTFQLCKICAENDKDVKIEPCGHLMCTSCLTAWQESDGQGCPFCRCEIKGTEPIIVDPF
# Human Cbl-b (residues 40-426), sequence (Q13191 40-426): as above
Compound,IC50 (Cbl-b),fold-selectivity (Cbl-b over C-cbl) (Cbl-b),IC50 (c-Cbl),Fold of selectivity [1],Kd [1],Kd (c-Cbl (residues 47-435)),IC50 (Cbl-b; Example 121),(fold-selectivity) Cbl-b and C-Cbl Selectivity (Cbl-b)
"Cn1cnnc1[C@H](c1cccc(N2Cc3c(cc(CNC4(C)CCC4)cc3C(F)(F)F)C2=O)c1)C1CC(OC(F)F)C1 (single isomer, unassigned) [Compound 390]",5.5 nM,1.0x,5.5 nM,3.0×,0.6 nM,1.7 nM,–,–
"Cn1cnnc1[C@@H](c1cccc(N2Cc3c(cc(CNC4(C)CCC4)cc3C(F)(F)F)C2=O)c1)C1CC(OC(F)(F)F)C1 (single isomer, unassigned) [Compound 398]",5.8 nM,1.1x,6.5 nM,4.5×,2 nM,9 nM,–,–
"CC(=O)N(C)[C@H](c1cccc(N2Cc3c(cc(CNC4(C)CCC4)cc3C(F)(F)F)C2=O)c1)c1nncn1C (single isomer, unassigned) [Compound 399]",530 nM,12x,6000 nM,17×,490 nM,8100 nM,–,–
"CC(=O)N1CC([C@@H](c2cccc(N3Cc4c(cc(CNC5(C)CCC5)cc4C(F)(F)F)C3=O)c2)c2nncn2C)C1 (single isomer, unassigned) [Compound 402]",580 nM,4.3x,2500 nM,3.4×,890 nM,2800 nM,–,–
"Cn1cnnc1[C@@H](c1cc(Cl)cc(N2Cc3c(cc(CNC4(C)CCC4)cc3C(F)(F)F)C2=O)c1)C1COC1 (single isomer, unassigned) [Compound 408]",–,–,780 nM,1.8×,440 nM,770 nM,540 nM,1.4 x
"C[C@H](NC1(C)CCC1)c1cc2c(c(C(F)F)c1)CN(c1cccc([C@H](c3nncn3C)C3COC3)c1)C2=O (single isomer, unassigned) [Compound 413]",–,–,7.1 nM,5.3×,0.3 nM,1.6 nM,4.5 nM,1.6x
"Cn1cnnc1[C@@H](c1cccc(N2Cc3c(cc([C@@H](NC4(C)CCC4)C4CC4)cc3C(F)(F)F)C2=O)c1)C1COC1 (single isomer, unassigned) [Compound 430]",–,–,91 nM,14×,5.9 nM,74 nM,19 nM,4.7x
"Cn1cnnc1[C@@H](c1cccc(N2Cc3c(cc([C@H](NC4(C)CCC4)C4CCC4)cc3C(F)(F)F)C2=O)c1)C1COC1 (single isomer, unassigned) [Compound 432]",–,–,7.1 nM,3.6×,0.4 nM,1.5 nM,5.5 nM,1.3x
"Cn1cnnc1[C@@H](c1cccc(N2Cc3c(cc([C@@H](NC4(C)CCC4)C4CCC4)cc3C(F)(F)F)C2=O)c1)C1COC1 (single isomer, unassigned) [Compound 433]",–,–,78 nM,10×,8.5 nM,86 nM,17 nM,4.7x
"Cn1cnnc1[C@H](c1cccc(N2Cc3c(cc([C@H](NC4(C)CCC4)C4CCC4)cc3C(F)(F)F)C2=O)c1)C1COC1 (single isomer, unassigned) [Compound 434]",–,–,510 nM,13×,190 nM,2500 nM,160 nM,3.1x
"C[C@H](NC1(C)CCC1)c1cc2c(c(C(F)(F)F)c1)CN(c1cccc([C@@H](c3nncn3C)C3COC3)c1)C2=O (single isomer, unassigned) [Compound 442]",–,–,2800 nM,18×,180 nM,3300 nM,260 nM,11x
"Cn1cnnc1[C@@H](c1cccc(N2Cc3c(cc(CNC4(C)CCC4)cc3C(F)F)C2=O)c1)C1CC(F)C1 (single isomer, unassigned) [Compound 458]",–,–,43 nM,10×,5.7 nM,57 nM,14 nM,3.1x

# Next, values leading:
IC50 (Cbl-b),fold-selectivity (Cbl-b over C-cbl) (Cbl-b),IC50 (c-Cbl),Fold of selectivity [1],Kd [1],Kd (c-Cbl (residues 47-435)),IC50 (Cbl-b; Example 121),(fold-selectivity) Cbl-b and C-Cbl Selectivity (Cbl-b),Compound
120 nM,7.6x,870 nM,9.7×,100 nM,970 nM,–,–,"Cn1cnnc1[C@@H](c1cccc(N2Cc3c(cc(CNC4(C)CCC4)cc3C(F)(F)F)C2=O)c1)C1CC(OC(F)F)C1 (single isomer, unassigned) [Compound 388]"
5.1 nM,1.7x,8.9 nM,4.4×,2.9 nM,13 nM,–,–,"Cn1cnnc1[C@H](c1cccc(N2Cc3c(cc(CNC4(C)CCC4)cc3C(F)(F)F)C2=O)c1)C1CC(OC(F)F)C1 (single isomer, unassigned) [Compound 389]"
10 nM,1.4x,14 nM,5.1×,7.5 nM,38 nM,–,–,"CC[C@@](O)(c1cccc(N2Cc3c(cc(CNC4(C)CCC4)cc3C(F)(F)F)C2=O)c1)c1nncn1C (single isomer, unassigned) [Compound 392]"
190 nM,2.4x,460 nM,3.5×,150 nM,540 nM,–,–,"CC[C@](F)(c1cccc(N2Cc3c(cc(CNC4(C)CCC4)cc3C(F)(F)F)C2=O)c1)c1nncn1C (single isomer, unassigned) [Compound 393]"
4.6 nM,0.8x,3.8 nM,2.4×,0.65 nM,1.4 nM,–,–,"CC[C@@](F)(c1cccc(N2Cc3c(cc(CNC4(C)CCC4)cc3C(F)(F)F)C2=O)c1)c1nncn1C (single isomer, unassigned) [Compound 394]"
75 nM,2.1x,160 nM,7.1×,130 nM,920 nM,–,–,"Cn1cnnc1[C@@H](c1cccc(N2Cc3c(cc(CNC4(C)CCC4)cc3C(F)(F)F)C2=O)c1)[C@H]1C[C@H](OC(F)(F)F)C1 (single isomer, unassigned) [Compound 395]"
–,–,5700 nM,16×,270 nM,4300 nM,390 nM,14x,"C[C@H](NC1(C)CCC1)c1cc2c(c(C(F)F)c1)CN(c1cccc([C@@H](c3nncn3C)C3COC3)c1)C2=O (single isomer, unassigned) [Compound 407]"
–,–,57 nM,1.4×,62 nM,90 nM,52 nM,1.1x,"Cn1cnnc1[C@H](c1cc(Cl)cc(N2Cc3c(cc(CNC4(C)CCC4)cc3C(F)(F)F)C2=O)c1)C1COC1 (single isomer, unassigned) [Compound 409]"
–,–,59 nM,16×,5.2 nM,82 nM,14 nM,4.2x,"C[C@@H](NC1(C)CCC1)c1cc2c(c(C(F)F)c1)CN(c1cccc([C@H](c3nncn3C)C3COC3)c1)C2=O (single isomer, unassigned) [Compound 412]"
–,–,200 nM,4.8×,42 nM,170 nM,37 nM,5.1x,"Cn1cnnc1[C@@H](c1cccc(N2Cc3c(cc(CNC4(C)CCC4)cc3C(F)(F)F)C2=O)c1)C1(O)CCC1 (single isomer, unassigned) [Compound 429]"
–,–,5.8 nM,3.1×,0.4 nM,1.3 nM,5.3 nM,1.1x,"Cn1cnnc1[C@@H](c1cccc(N2Cc3c(cc([C@H](NC4(C)CCC4)C4CC4)cc3C(F)(F)F)C2=O)c1)C1COC1 (single isomer, unassigned) [Compound 431]"
–,–,2400 nM,5.3×,600 nM,3500 nM,–,4.2x,"CC1(NCc2cc3c(c(C(F)(F)F)c2)CN(c2cccc([C@@H](C4COC4)n4ccnn4)c2)C3=O)CCC1 (single isomer, unassigned) [Compound 436]"
–,–,2400 nM,18×,230 nM,4100 nM,360 nM,6.5x,"Cn1cnnc1[C@H](c1cccc(N2Cc3c(cc([C@H](NC4(C)CCC4)C4CC4)cc3C(F)(F)F)C2=O)c1)C1COC1 (single isomer, unassigned) [Compound 456]"
–,–,6.3 nM,6.1×,0.5 nM,3.2 nM,5.9 nM,1.1x,"Cn1cnnc1[C@@H](c1cccc(N2Cc3c(cc(CNC4(C)CCC4)cc3C(F)F)C2=O)c1)C1CC(F)C1 (single isomer, unassigned) [Compound 459]"

# From patent US12187709B2 (Genentech, Inc., priority 2021, dated 2025)
